This note sets out measurements from ChEMBL document CHEMBL1201862, “PubChem BioAssay data set” (2004).

Test systems include UACC-62; SF-295; HOP-62; KM12; HCC 2998; OVCAR-4; SN12C; A498; Hs-578T; HOP-92; SW-620; UO-31; SNB-75; MOLT-4; M14; K562; SF-268; BT-549; LOX IMVI; OVCAR-3.
Test in all cases: NCI-60 cell line screen, 48 h

Each structure is given as a SMILES string.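 Following 48 hours of exposure in 96-well plates, responses at five concentrations were used to interpolate endpoints linearly. The concentration for 50% growth inhibition is given as GI50.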 Active and inactive are the calls of the source. No stated cut-off is given here; in the data, active = GI50 up to about 1.1 µM and inactive = higher.

Take `N/N=C(\N)Nc1cccc2ccccc12`: the GI50 in the assay on UACC-62, in the assay with SF-295, in the assay on HOP-62, in the assay with KM12, in the assay with HCC 2998 and in the assay with OVCAR-4 was > 100 µM (inactive) each time. The GI50 in the assay on SN12C was > 100 µM (inactive); with A498, 33.3 µM (inactive); in the assay with Hs-578T it was > 100 µM (inactive); with HOP-92, 27.9 µM (inactive); with SW-620, > 100 µM (inactive); with UO-31, > 100 µM (inactive). The GI50 in the assay on SNB-75, with MOLT-4, with M14, in the assay on K562 and in the assay on SF-268 was > 100 µM (inactive) each time.

Take `CC1(C)O[C@@H](CP(c2ccccc2)c2ccccc2)[C@H](CP(c2ccccc2)c2ccccc2)O1`: the GI50 with SF-295 is 5.62 µM (inactive); with BT-549, 2.96 µM (inactive); in the assay with HOP-62, 15.1 µM (inactive); with KM12 it was 2.85 µM (inactive); in the assay with OVCAR-4, 9.08 µM (inactive); in the assay on SN12C it was 4.11 µM (inactive). Besides, the GI50 was 12.6 µM (inactive) in the assay with A498; 8 µM (inactive) in the assay on HOP-92; 1.82 µM (inactive) in the assay with LOX IMVI; 17.2 µM (inactive) in the assay with SW-620; > 10 µM (inactive) with UO-31; 6.55 µM (inactive) in the assay with SNB-75. For the same molecule, the GI50 in the assay on MOLT-4 was 2.69 µM (inactive); with M14 it was 5.94 µM (inactive); in the assay with OVCAR-3, 0.384 µM (active); in the assay on SF-268, 5.96 µM (inactive).

Regarding `Cc1nn(C)cc1P(=S)(c1ccccc1)c1ccccc1`, the GI50 was 47 µM (inactive) in the assay on UACC-62; 67.5 µM (inactive) with SF-295; 70.3 µM (inactive) in the assay on HOP-62; 36.4 µM (inactive) in the assay with KM12; > 100 µM (inactive) in the assay on HCC 2998; > 100 µM (inactive) in the assay with OVCAR-4. Further, the GI50 was > 100 µM (inactive) in the assay on SN12C; > 100 µM (inactive) with A498; 35.2 µM (inactive) in the assay on HOP-92; 30.3 µM (inactive) in the assay with LOX IMVI; 51.9 µM (inactive) in the assay with SW-620; > 100 µM (inactive) in the assay on UO-31. The GI50 with SNB-75 was 24.4 µM (inactive); in the assay with MOLT-4, 30.3 µM (inactive); in the assay on M14, 71.6 µM (inactive); in the assay with OVCAR-3, > 100 µM (inactive); in the assay on K562, 20.6 µM (inactive); in the assay with SF-268, 81.8 µM (inactive).

Regarding `NNC1=N/C(=C\c2ccco2)C(=O)N1`, the GI50 with UACC-62 is 33 µM (inactive); in the assay with SF-295, > 100 µM (inactive); with BT-549, 40.6 µM (inactive); in the assay on HOP-62, > 100 µM (inactive); in the assay on KM12 it was > 100 µM (inactive); in the assay with HCC 2998 it was 44.3 µM (inactive). The GI50 was > 100 µM (inactive) in the assay on OVCAR-4; > 100 µM (inactive) with SN12C; > 100 µM (inactive) with A498; 60.1 µM (inactive) with LOX IMVI; > 100 µM (inactive) in the assay on SW-620; 59.4 µM (inactive) with UO-31. For the same molecule, the GI50 was > 100 µM (inactive) in the assay on SNB-75; 64.7 µM (inactive) in the assay with MOLT-4; > 100 µM (inactive) with M14; > 100 µM (inactive) in the assay on OVCAR-3; 93.3 µM (inactive) with K562.

As to `O=C1C[C@H]2[C@H](c3ccc(Br)cc3)[C@H]3C(=O)c4ccccc4NC(=O)[C@@H]3[C@@]2(O)c2ccccc2N1`, the GI50 in the assay with UACC-62 is 24.8 µM (inactive); with SF-295 it was 24 µM (inactive); in the assay with HOP-62, 19.6 µM (inactive); in the assay on KM12 it was 11.7 µM (inactive); with HCC 2998 it was 11.7 µM (inactive); in the assay with OVCAR-4 it was 12.5 µM (inactive). In addition, the GI50 with SN12C was 24.5 µM (inactive); with A498, 8.34 µM (inactive); with Hs-578T, 48 µM (inactive); in the assay with HOP-92, < 0.01 µM (active); in the assay with LOX IMVI, 13.8 µM (inactive); with SW-620, 19.7 µM (inactive). Besides, the GI50 was 4.53 µM (inactive) in the assay with SNB-75; 3.94 µM (inactive) with MOLT-4; 12.3 µM (inactive) in the assay with M14; 10.6 µM (inactive) in the assay with OVCAR-3; 12 µM (inactive) in the assay with K562; 19.1 µM (inactive) in the assay on SF-268.

For the molecule `CC(C)OC(=O)NCCn1cc(-c2ccccc2)nn1`, the GI50 in the assay with SF-295, in the assay with BT-549, in the assay with HOP-62, with KM12, in the assay on HCC 2998 and with OVCAR-4 was > 100 µM (inactive) throughout. The GI50 with SN12C, in the assay on HOP-92, in the assay on LOX IMVI, with SNB-75, in the assay on MOLT-4 and with M14 was > 100 µM (inactive) throughout. The GI50 in the assay on K562 and with SF-268 was > 100 µM (inactive) each time.

Turning to `Cn1c(=S)sc2nc3ccccc3n2c1=S`, the GI50 in the assay on UACC-62 is 11.4 µM (inactive); in the assay on SF-295 it was 18.8 µM (inactive); with HOP-62, 17 µM (inactive); in the assay with KM12, 10.2 µM (inactive); in the assay with HCC 2998, 19.6 µM (inactive); with OVCAR-4, 16 µM (inactive). For the same molecule, the GI50 in the assay with SN12C was 10.6 µM (inactive); in the assay on A498, 19.3 µM (inactive); in the assay with Hs-578T, 21.6 µM (inactive); in the assay with HOP-92 it was 8.93 µM (inactive); in the assay on LOX IMVI it was 5.97 µM (inactive); in the assay on SW-620, 12 µM (inactive). Moreover, the GI50 in the assay with UO-31 was 5.55 µM (inactive); in the assay on SNB-75, 16.5 µM (inactive); with MOLT-4 it was 5.36 µM (inactive); in the assay on M14 it was 4.47 µM (inactive); in the assay with OVCAR-3 it was 12.1 µM (inactive); in the assay with K562, 2 µM (inactive). Moreover, the GI50 in the assay with SF-268 is 10.9 µM (inactive).

In the case of `C=CCOCn1cnc2c(=O)[nH]c(N)nc21`, the GI50 in the assay with UACC-62, in the assay on SF-295, with HOP-62, with KM12, in the assay with HCC 2998 and in the assay on OVCAR-4 was > 100 µM (inactive) throughout. For the same molecule, the GI50 with SN12C, in the assay with A498, with Hs-578T, in the assay on LOX IMVI, in the assay on SW-620 and in the assay on UO-31 was > 100 µM (inactive) in each case. In addition, the GI50 in the assay on SNB-75, in the assay with MOLT-4, in the assay with M14, with K562 and in the assay with SF-268 was > 100 µM (inactive) throughout.

As to `O=C1Nc2ccccc2/C1=c1\[nH]c(=O)/c(=C\c2ccc(OCc3ccccc3)cn2)[nH]c1=O`, the GI50 in the assay on UACC-62 was 67 µM (inactive); with SF-295, 16.8 µM (inactive); in the assay with HOP-62, 20 µM (inactive); with KM12 it was > 100 µM (inactive); in the assay on HCC 2998, > 100 µM (inactive); in the assay with OVCAR-4 it was 72.4 µM (inactive). Moreover, the GI50 in the assay with SN12C was > 100 µM (inactive); with A498, 27.3 µM (inactive); in the assay on Hs-578T it was 21.4 µM (inactive); in the assay on HOP-92, 26.6 µM (inactive); in the assay on LOX IMVI it was > 100 µM (inactive); in the assay with SW-620 it was > 100 µM (inactive). Moreover, the GI50 is < 0.01 µM (active) in the assay on UO-31; 4.21 µM (inactive) in the assay with SNB-75; 52.8 µM (inactive) in the assay on MOLT-4; 56.6 µM (inactive) in the assay with M14; > 100 µM (inactive) in the assay with OVCAR-3; 20.4 µM (inactive) in the assay on K562. Moreover, the GI50 in the assay on SF-268 was 21.2 µM (inactive).

On to `COc1c(Cl)c2c(c(OC)c1OC)-c1ccc(OC)c(=O)c(Cl)c1C(NC(C)=O)CC2` (configuration not stated), for which the GI50 in the assay on UACC-62 was 0.108 µM (active); with SF-295, 0.14 µM (active); in the assay on HOP-62, 0.306 µM (active); in the assay with KM12, 0.104 µM (active); with HCC 2998, 0.182 µM (active); in the assay on OVCAR-4, 27.1 µM (inactive). Moreover, the GI50 in the assay with SN12C is 0.444 µM (active); with A498, 0.0593 µM (active); in the assay with HOP-92, 0.117 µM (active); in the assay on LOX IMVI it was 0.296 µM (active); with SW-620, 0.12 µM (active); with UO-31, 3.63 µM (inactive). Besides, the GI50 is 0.1 µM (active) with SNB-75; 0.345 µM (active) in the assay on MOLT-4; 0.244 µM (active) in the assay with M14; 0.117 µM (active) in the assay on OVCAR-3; 0.139 µM (active) in the assay with K562; 0.212 µM (active) in the assay on SF-268.

As to `CC(C)C1=Cc2ccc3c(c2C(=O)C1=O)CCCC3`, the GI50 in the assay with UACC-62 was 7.46 µM (inactive); with SF-295, 12.8 µM (inactive); in the assay on HOP-62, 21.4 µM (inactive); with KM12, 17.1 µM (inactive); with HCC 2998 it was 17.1 µM (inactive); with OVCAR-4, 1.51 µM (inactive). Moreover, the GI50 was 5.27 µM (inactive) with SN12C; 13.1 µM (inactive) in the assay on A498; 20.2 µM (inactive) in the assay with Hs-578T; 0.998 µM (active) with HOP-92; 10.4 µM (inactive) with LOX IMVI; 3.3 µM (inactive) in the assay with SW-620. The GI50 was 3.31 µM (inactive) in the assay on UO-31; 2.05 µM (inactive) in the assay on SNB-75; 0.78 µM (active) in the assay on MOLT-4; 5.11 µM (inactive) with M14; 2.33 µM (inactive) in the assay with OVCAR-3; 2.44 µM (inactive) in the assay on K562. In addition, the GI50 in the assay on SF-268 is 7.11 µM (inactive).
